Measured values taken from patent US10206936B2, “Oxidized lipids and treatment or prevention of fibrosis” (Vascular Biogenics Ltd., priority 2014, dated 2019).
“And” between values parts separate entries of the source, which are not always exact repeats. Identical values can stand only once.

How the values were obtained:
[1] = test system: NASH mouse model; experiment: NASH mouse model (STZ + HFD): liver inflammation and fibrosis histology; assay type: in vivo; conditions: NASH mice; for reduction of liver inflammation (inflammation score) vs vehicle: VB-201 4 mg/kg or telmisartan 10 mg/kg once daily for three weeks
Procedure: Neonatal male mice exposed to low-dose streptozotocin (STZ) develop liver steatosis with diabetes. Continuous high fat diet (HFD) increases lobular inflammation with foam cell-like macrophages, showing nonalcoholic steatohepatitis (NASH) pathology. NASH was induced in 40 male mice by a single subcutaneous injection of 200 μg per mouse of STZ two days after birth and feeding HFD [57 kcal % fat]) from four weeks of age. Vehicle, VB-201 (4 mg/kg), or telmisartan (10 mg/kg) as positive control, were administered once daily for three weeks, starting from six weeks of age. Mice were sacrificed at nine weeks of age.
Liver pathology was used to determine the effect of VB-201 on liver inflammation and fibrosis. Histology slides were stained with hematoxylin/eosin (H&E) to assess inflammation. The inflammation score was determined as follows:
Histology slides were stained with Sirius red to determine collagen content as a marker for the extent of fibrosis.

[2] = test system: nephrectomized rats; experiment: 5/6 nephrectomy rat model: glomerular damage and sclerosis (PAS); assay type: in vivo, Sprague Dawley (SD) Rats; conditions: for Glomerular sclerosis, Global % (Mean ± S.E) / Glomerular sclerosis, Global & Segmental % (Mean ± S.E) / Glomerular sclerosis, Segmental % (Mean ± S.E): Nx rats, VB-201 4 mg/kg or telmisartan 10 mg/kg, 8 weeks; for reduction of damaged glomeruli vs Nx PBS 0.5% Eth / reduction of sclerotic glomeruli vs Nx PBS 0.5% Eth: VB-201 4 mg/kg or telmisartan 10 mg/kg oral, 7 weeks, evaluated at 8 weeks
Procedure: Male Sprague Dawley (SD) Rats (Harlan Laboratories, Israel) with an initial weight of 200 g were housed 2-3 per cage in IVC cages in dedicated HVAC (heat, ventilation, air conditioning) animal facility. The facility had no exposure to outside light and was maintained on automatic alternating cycles of 12 hours of light and 12 hours of dark. Animals were provided with a commercial rodent diet (Harlan Teklad TRM Rat/Mouse Diet) ad libitum and allowed free access to autoclaved water, supplied to each cage via polysulphone bottles with stainless steel sipper tubes. All animal work was approved by the Animal Care and Use Committee of Israel (IL-13-03-027).
(§1) Rats were divided into three groups: (1) Healthy rats (n=3) in group A, (2) Sham group—subjected to chirurgical process but without kidney mass reduction (n=3) in group B, and (3) the rest were induced with chronic renal failure (n=24). Chronic renal failure was induced by a two stage (5/6) nephrectomy (Nx), with subtraction firstly of about ⅔ of the left kidney by left flank incision and, one week later, complete removal of the right kidney. General anesthesia consisted of intraperitoneal injection of ketamine 100 mg/kg and xylazine 20 mg/kg (0.85 ml ketamine+0.15 ml xylazine for each ml preparation; 1 μl/g BW was injected I.P).
One week following the second surgery, rats were randomly assigned to the following experimental groups:
Nephrectomized, orally administered with VB-201 4 mg/kg (n=8); and
Nephrectomized, orally administered with telmisartan 10 mg/kg as positive control (n=8).
(§2) Body weight (BW) was monitored throughout the study and rats were treated by oral gavage according to their body weight for 7 weeks. Rats were sacrificed by CO2 inhalation 8 weeks from removal of the right kidney (2nd surgery).
Upon sacrifice, at 8 weeks, kidneys were collected, weighed and fixed in 4% formaldehyde.
For light microscopy, paraffin-embedded tissue slides of 4 μm were stained with Periodic Acid-Schiff (PAS) reagent.
Glomerulosclerosis was assessed by PAS-stained sections using a semiquantitative scoring system. The extent of glomerulosclerosis was evaluated by examining mostly 100 randomly selected glomeruli at a magnification of ×400 and applying a score system according to the percentage of sclerosed glomerular area. The score was graded from 0 to 4: (0=0% area; 1=1-25%; 2=26-50%, 3=51-75%, 4=76% and above). The mean of all scored glomeruli was presented. Moreover, the extent of global and segmental glomerulosclerosis was evaluated in the same glomeruli, where <80% sclerosis was referred to as segmental and >80% was referred to as global.
The glomerular area of mostly 100 randomly selected glomeruli at a magnification of ×100 was quantitated by counting squares covered by glomeruli area using a grid and the mean glomeruli area was calculated.
Glomeruli were evaluated for their fibrosis extent by scoring and by calculation of the percent of glomeruli having segmental sclerosis, global sclerosis and the sum of global and segmental sclerotic glomeruli. Moreover, the area of the glomeruli was calculated and the percent of hypertrophied glomeruli was calculated. Damaged glomeruli included hypertrophied (at least ×1.5 from normal area) and or sclerotic glomeruli.

[3] = test system: nephrectomized rats; experiment: 5/6 nephrectomy rat model: ED-1/CD68+ monocyte/macrophage infiltration, immunohistochemistry; assay type: in vivo, Sprague Dawley (SD) Rats; conditions: VB-201 4 mg/kg or telmisartan 10 mg/kg, 8 weeks after surgery; for ED-1/CD68+ Glomerular monocytes/macrophages (Mean ± S.E) / ED-1/CD68+ Interstitial monocytes/macrophages (Mean ± S.E): Nx rats
Source text: as §1, §2
Renal tissues were fixed in 4% formaldehyde and embedded in paraffin. The paraffin-embedded tissues were then cut to form tissue slides of 4 μm. Immunohistochemistry of the paraffin-embedded tissue slides was analyzed using antibodies in the following concentration: monoclonal mouse anti rat CD-68 (ED-1, Serotec MCA341) 1:25. For quantitation of interstitial CD68+ staining, the number of positive cells was counted in 20 randomly selected non-overlapping fields per animal, and the mean value was presented.

[4] = test system: Collagen IV; experiment: 5/6 nephrectomy rat model: kidney Collagen IV mRNA, real-time PCR; assay type: in vivo, Sprague Dawley (SD) Rats; conditions: kidney of Nx rats, 8 weeks; for reduction of Collagen IV mRNA expression vs Nx PBS 0.5% Eth: VB-201 4 mg/kg or telmisartan 10 mg/kg; for Collagen IV relative mRNA expression (mean ± SEM): normalized to TBP, relative to Sham PBS 0.5% Eth
Source text: as §1, §2
(§3) Kidney RNA was extracted with an RNeasy Fibrous Tissue Mini kit (Qiagen) and after DNAse I treatment, single-stranded cDNA was synthesized from 2 μg total RNA using the qScript cDNA Synthesis Kit (Quanta Biosciences) and diluted for real-time PCR. The expression of collagen 4a, fibronectin and TGFβ was quantified using the 7300 Real Time PCR System (Applied Biosystems). The assay was performed according to manufacturer instructions using the primers (Assay ID) represented at the table below supplied by Applied Biosystems. Data were normalized to the reference gene TATA-box Binding Protein (TBP) and presented as relative mRNA levels compared with Sham PBS 0.5% Eth treatment (Table 1).

[5] = test system: TGF-β; experiment: 5/6 nephrectomy rat model: kidney TGF-β mRNA, real-time PCR; assay type: in vivo, Sprague Dawley (SD) Rats; conditions: kidney of Nx rats, 8 weeks; for reduction of TGF-β mRNA expression vs Nx PBS 0.5% Eth: VB-201 4 mg/kg or telmisartan 10 mg/kg; for TGF-β relative mRNA expression (mean ± SEM): normalized to TBP, relative to Sham PBS 0.5% Eth
Source text: as §1, §2, §3

## CCCCCCCCCCCCCCCCOCC(COP(=O)([O-])OCC[N+](C)(C)C)OCCCCC(=O)O (centres unmarked) [VB-201, 1-hexadecyl-2-(4′-carboxybutyl)-glycero-3-phosphocholine]
[1]; VB-201 4 mg/kg once daily for three weeks
  decrease of extent of liver fibrosis (Sirius red fibrosis area) vs vehicle: about 34%
[1]
  reduction of liver inflammation (inflammation score) vs vehicle: 65%
[2]
  Glomerular sclerosis, Global % (Mean ± S.E): 5.4 ± 3.22%
  Glomerular sclerosis, Global & Segmental % (Mean ± S.E): 31.8 ± 4.92%
  Glomerular sclerosis, Segmental % (Mean ± S.E): 26.5 ± 4.39%
  reduction of damaged glomeruli vs Nx PBS 0.5% Eth: 29%
  reduction of sclerotic glomeruli vs Nx PBS 0.5% Eth: 34%
[3]
  ED-1/CD68+ Glomerular monocytes/macrophages (Mean ± S.E): 2.113±0.374 Cells/Glomeruli and 2.113 Cells/Glomeruli
  ED-1/CD68+ Interstitial monocytes/macrophages (Mean ± S.E): 269.25±25.41 Cells/mm^2 and 269.3 Cells/mm^2
  reduction of number of glomerular monocytes/macrophages vs Nx PBS 0.5% Eth: 42%
  reduction of number of interstitial monocytes/macrophages vs Nx PBS 0.5% Eth: 49%
[4]
  reduction of Collagen IV mRNA expression vs Nx PBS 0.5% Eth: 42%
  Collagen IV relative mRNA expression (mean ± SEM): 4.3±0.33
[5]
  reduction of TGF-β mRNA expression vs Nx PBS 0.5% Eth: 37%
  TGF-β relative mRNA expression (mean ± SEM): 5.3±0.33

## CCCc1nc2c(C)cc(-c3nc4ccccc4n3C)cc2n1Cc1ccc(-c2ccccc2C(=O)O)cc1 [telmisartan, reference compound]
[1]
  reduction of liver inflammation (inflammation score) vs vehicle: 77%
[2]
  Glomerular sclerosis, Global % (Mean ± S.E): 1.9 ± 1.60%
  Glomerular sclerosis, Global & Segmental % (Mean ± S.E): 21.0 ± 5.45%
  Glomerular sclerosis, Segmental % (Mean ± S.E): 19.1 ± 4.30%
  reduction of damaged glomeruli vs Nx PBS 0.5% Eth: 31%
  reduction of sclerotic glomeruli vs Nx PBS 0.5% Eth: 57%
[3]
  ED-1/CD68+ Glomerular monocytes/macrophages (Mean ± S.E): 3.185±0.427 Cells/Glomeruli and 3.185 Cells/Glomeruli
  ED-1/CD68+ Interstitial monocytes/macrophages (Mean ± S.E): 421.0±61.77 Cells/mm^2 and 421.0 Cells/mm^2
  reduction of number of glomerular monocytes/macrophages vs Nx PBS 0.5% Eth: 13%
  reduction of number of interstitial monocytes/macrophages vs Nx PBS 0.5% Eth: 20%
[4]
  reduction of Collagen IV mRNA expression vs Nx PBS 0.5% Eth: 41%
  Collagen IV relative mRNA expression (mean ± SEM): 4.4±0.23
[5]
  reduction of TGF-β mRNA expression vs Nx PBS 0.5% Eth: 44%
  TGF-β relative mRNA expression (mean ± SEM): 4.7±0.52
